Values after ≈ are worked out from the molar mass of the structure shown. Active and inactive are the calls of the source. No cut-off for these calls is given here.

This note sets out measurements from ChEMBL document CHEMBL1629501, “Regiospecific synthesis and biological evaluation of spirooxindolopyrrolizidines via [3+2] cycloaddition of azomethine ylide” (2010).

Assay [1] concerns Cryptococcus neoformans. As to the kind of experiment: Antifungal activity against Cryptococcus neoformans ATCC 3312 after 72 to 96 hrs by twofold serial dilution method. The assay is classed as functional.
Assay [2] concerns Candida albicans. As to the kind of experiment: Antifungal activity against Candida albicans ATCC 3122 by twofold serial dilution method. The assay is classed as functional.
Assay [3] deals with Rhizopus. In words: Antifungal activity against Rhizopus sp. ATCC 2915 after 72 to 96 hrs by twofold serial dilution method. The assay is classed as functional.
The subject of assay [4] is Aspergillus niger. In words: Antifungal activity against Aspergillus niger ATCC 598 after 72 to 96 hrs by twofold serial dilution method. The assay is classed as functional.
The test system of assay [5] is Aspergillus flavus. In words: Antifungal activity against Aspergillus flavus ATCC 485 after 72 to 96 hrs by twofold serial dilution method. Format: functional.
Assay [6] deals with Staphylococcus aureus. In words: Antibacterial activity against Staphylococcus aureus ATCC 25825 after 24 hrs by twofold serial dilution method. Format: functional. To be noted: ATCC 25825, 24 h.
The subject of assay [7] is Bacillus subtilis. In words: Antibacterial activity against Bacillus subtilis ATCC 451 after 24 hrs by twofold serial dilution method. The assay is classed as functional. The following applies: ATCC 451, 24 h.
The subject of assay [8] is Salmonella typhi. As to the kind of experiment: Antibacterial activity against Salmonella typhi ATCC 24915 after 24 hrs by twofold serial dilution method. The following applies: Salmonella enterica, ATCC 24915, 24 h. Format: functional, Salmonella enterica subsp. enterica serovar Typhi.
For assay [9], the system named is Escherichia coli. As to the kind of experiment: Antibacterial activity against Escherichia coli ATCC 25835 after 24 hrs by twofold serial dilution method. The assay is classed as functional. To be noted: ATCC 25835, 24 h.
Assay [10] relates to Klebsiella pneumoniae. In words: Antibacterial activity against Klebsiella pneumoniae ATCC 15490 at 200 ug/ml after 24 hrs by twofold serial dilution method. Format: functional, organism-based.
For assay [11], the system named is Klebsiella pneumoniae. In words: Antibacterial activity against Klebsiella pneumoniae ATCC 15490 after 24 hrs by twofold serial dilution method. Format: functional. The following applies: ATCC 15490, 24 h.

Take `C[C@@H]1[C@H](O)[C@@H](C)/C=C/C=C/C=C/C=C/C=C/C=C/C=C/[C@H](O[C@@H]2O[C@H](C)[C@@H](O)[C@H](N)[C@@H]2O)C[C@@H]2O[C@](O)(C[C@@H](O)C[C@@H](O)[C@H](O)CC[C@@H](O)C[C@@H](O)CC(=O)O[C@H]1C)C[C@H](O)[C@H]2C(=O)O` [AMPHOTERICIN B]: the minimum inhibitory concentration (MIC) was 25 µg/mL (≈ 27.1 µM) in assay [1]; 25 µg/mL (≈ 27.1 µM) in assay [2]; 25 µg/mL (≈ 27.1 µM) in assay [3]; 50 µg/mL (≈ 54.1 µM) in assay [4]; 50 µg/mL (≈ 54.1 µM) in assay [5].

Turning to `O=C(c1cccs1)[C@H]1[C@H](c2ccc(F)cc2)C2CCCN2[C@]12C(=O)Nc1ccccc12` (stereo partly drawn), the MIC in assay [6] stood at 6.25 µg/mL (≈ 14.5 µM); in assay [7], 25 µg/mL (≈ 57.8 µM); in assay [8], 6.25 µg/mL (≈ 14.5 µM); in assay [9], 50 µg/mL (≈ 116 µM); in assay [1], 25 µg/mL (≈ 57.8 µM); in assay [2], 6.25 µg/mL (≈ 14.5 µM). In addition, the results for the MIC in assay [3], in assay [4] and in assay [5] were 6.25 µg/mL (≈ 14.5 µM), 200 µg/mL (≈ 462 µM) and 100 µg/mL (≈ 231 µM), respectively. Moreover, the outcome in assay [10] was inactive.

Take `O=C(c1cccs1)[C@H]1[C@H](c2ccc(Cl)cc2)C2CCCN2[C@]12C(=O)Nc1ccccc12` (stereo partly drawn): the MIC in [6] is 6.25 µg/mL (≈ 13.9 µM); in assay [7] it was 12.5 µg/mL (≈ 27.8 µM); in assay [8], 6.25 µg/mL (≈ 13.9 µM); in assay [9], 25 µg/mL (≈ 55.7 µM); in assay [1], 12.5 µg/mL (≈ 27.8 µM); in [2], 25 µg/mL (≈ 55.7 µM). Further, the MIC in assay [3] was 6.25 µg/mL (≈ 13.9 µM); in [4] it was 25 µg/mL (≈ 55.7 µM); in assay [5], 100 µg/mL (≈ 223 µM). In addition, the outcome in [10] was inactive.

Regarding `CN[C@@H]1[C@H](O[C@H]2[C@H](O[C@H]3[C@H](O)[C@@H](O)[C@H](N=C(N)N)[C@@H](O)[C@@H]3N=C(N)N)O[C@@H](C)[C@]2(O)C=O)O[C@@H](CO)[C@H](O)[C@H]1O` [STREPTOMYCIN], the MIC in assay [6] is 50 µg/mL (≈ 86 µM); in assay [7] it was 12.5 µg/mL (≈ 21.5 µM); in [8] it was 50 µg/mL (≈ 86 µM); in assay [9], 12.5 µg/mL (≈ 21.5 µM); in assay [11] it was 25 µg/mL (≈ 43 µM).

Regarding `O=C(c1cccs1)[C@H]1[C@H](c2cccc(Br)c2)C2CCCN2[C@]12C(=O)Nc1ccccc12` (stereo partly drawn), the MIC in assay [6] is 25 µg/mL (≈ 50.7 µM); in assay [7], 25 µg/mL (≈ 50.7 µM); in [8], 100 µg/mL (≈ 203 µM); in assay [9] it was 50 µg/mL (≈ 101 µM); in [11], 100 µg/mL (≈ 203 µM); in [1], 25 µg/mL (≈ 50.7 µM). The MIC in [2] turned out to be 50 µg/mL (≈ 101 µM); in assay [3] it was 12.5 µg/mL (≈ 25.3 µM); in [4] it was 100 µg/mL (≈ 203 µM); in assay [5], 200 µg/mL (≈ 405 µM).

Consider `COc1ccc([C@@H]2C3CCCN3[C@]3(C(=O)Nc4ccccc43)[C@H]2C(=O)c2cccs2)cc1` (stereo partly drawn), for which the MIC is 6.25 µg/mL (≈ 14.1 µM) in assay [6]; 50 µg/mL (≈ 112 µM) in assay [7]; 100 µg/mL (≈ 225 µM) in assay [8]; 100 µg/mL (≈ 225 µM) in assay [9]; 25 µg/mL (≈ 56.2 µM) in [11]; 50 µg/mL (≈ 112 µM) in assay [1]. Moreover, the MIC in [2] stood at 100 µg/mL (≈ 225 µM); in assay [3], 50 µg/mL (≈ 112 µM); in assay [4], 100 µg/mL (≈ 225 µM); in assay [5] it was 25 µg/mL (≈ 56.2 µM).

On to `O=C(c1cccs1)[C@H]1[C@H](c2ccc([N+](=O)[O-])cc2)C2CCCN2[C@]12C(=O)Nc1ccccc12` (stereo partly drawn), for which the MIC in assay [6] came out at 100 µg/mL (≈ 218 µM); in assay [7] it was 50 µg/mL (≈ 109 µM); in assay [8], 100 µg/mL (≈ 218 µM); in assay [9] it was 200 µg/mL (≈ 435 µM); in [11] it was 50 µg/mL (≈ 109 µM); in assay [1], 100 µg/mL (≈ 218 µM). For the same compound, the MIC in [2] is 200 µg/mL (≈ 435 µM); in [3], 50 µg/mL (≈ 109 µM); in [4], 100 µg/mL (≈ 218 µM); in assay [5] it was 200 µg/mL (≈ 435 µM).

With `CN(C)c1ccc([C@@H]2C3CCCN3[C@]3(C(=O)Nc4ccccc43)[C@H]2C(=O)c2cccs2)cc1` (stereo partly drawn), the minimum inhibitory concentration (MIC) was 200 µg/mL (≈ 437 µM) in assay [6]; 50 µg/mL (≈ 109 µM) in assay [7]; 100 µg/mL (≈ 219 µM) in assay [8]; 100 µg/mL (≈ 219 µM) in assay [9]; 50 µg/mL (≈ 109 µM) in assay [11]; 50 µg/mL (≈ 109 µM) in [1]. Also, the MIC in [2] is 100 µg/mL (≈ 219 µM); in assay [3] it was 50 µg/mL (≈ 109 µM); in assay [4], 100 µg/mL (≈ 219 µM); in assay [5], 200 µg/mL (≈ 437 µM).

Consider `Cc1ccc([C@@H]2C3CCCN3[C@]3(C(=O)Nc4ccccc43)[C@H]2C(=O)c2cccs2)cc1` (stereo partly drawn), for which the MIC in assay [6] was 50 µg/mL (≈ 117 µM); in assay [7], 25 µg/mL (≈ 58.3 µM); in assay [8], 6.25 µg/mL (≈ 14.6 µM); in [9], 50 µg/mL (≈ 117 µM); in assay [11], 100 µg/mL (≈ 233 µM); in assay [1], 100 µg/mL (≈ 233 µM). Further, the figures for the MIC in [2], in assay [3] and in assay [5] were 100 µg/mL (≈ 233 µM), 100 µg/mL (≈ 233 µM) and 25 µg/mL (≈ 58.3 µM), respectively.

Regarding `O=C(c1cccs1)[C@H]1[C@H](c2ccccc2)C2CCCN2[C@]12C(=O)Nc1ccccc12` (stereo partly drawn), the MIC in assay [6] turned out to be 50 µg/mL (≈ 121 µM); in assay [7], 100 µg/mL (≈ 241 µM); in assay [8] it was 100 µg/mL (≈ 241 µM); in assay [9], 100 µg/mL (≈ 241 µM); in [11], 200 µg/mL (≈ 482 µM); in [1], 50 µg/mL (≈ 121 µM). Moreover, the figures for the MIC in assay [2], in assay [3] and in [5] were 100 µg/mL (≈ 241 µM), 200 µg/mL (≈ 482 µM) and 200 µg/mL (≈ 482 µM), respectively.

The MIC is the least concentration at which growth counts as inhibited. A lower MIC goes with greater potency.
